# According to ChEMBL document CHEMBL1156987, “Novel azalides derived from 16-membered macrolides. III. Azalides modified at the C-15 and 4'' positions: Improved antibacterial activities” (Bioorg Med Chem, 2010):
# Tests used:
# Streptococcus pneumoniae [1] = experiment: Antibacterial activity against Streptococcus pneumoniae 8 expressing inducible ermB methylase after 20 hrs by agar dilution method; type: functional; conditions: Streptococcus pneumoniae, 8, 20 h
# Staphylococcus aureus = experiment: Antibacterial activity against Staphylococcus aureus 209P JC1 after 20 hrs by agar dilution method; type: functional; conditions: 209P JC1, 20 h
# Haemophilus influenzae [2] = experiment: Antibacterial activity against Haemophilus influenzae 3 after 20 hrs by agar dilution method; type: functional; conditions: Haemophilus influenzae, 3, 20 h
# Haemophilus influenzae [3] = experiment: Antibacterial activity against Haemophilus influenzae 1 after 20 hrs by agar dilution method; type: functional; conditions: Haemophilus influenzae, 1, 20 h
# Streptococcus pneumoniae [4] = experiment: Antibacterial activity against Streptococcus pneumoniae 6 expressing constitutive ermB methylase and mefA after 20 hrs by agar dilution method; type: functional; conditions: Streptococcus pneumoniae, 6, 20 h
# Streptococcus pyogenes [5] = experiment: Antibacterial activity against Streptococcus pyogenes 2 expressing constitutive ermB methylase after 20 hrs by agar dilution method; type: functional; conditions: Streptococcus pyogenes, 2, 20 h
# Streptococcus pneumoniae [6] = experiment: Antibacterial activity against Streptococcus pneumoniae 9 expressing inducible ermB methylase after 20 hrs by agar dilution method; type: functional; conditions: Streptococcus pneumoniae, 9, 20 h
# Streptococcus pneumoniae [7] = experiment: Antibacterial activity against Streptococcus pneumoniae 11 expressing mefA efflux pump after 20 hrs by agar dilution method; type: functional; conditions: Streptococcus pneumoniae, 11, 20 h
# Haemophilus influenzae [8] = experiment: Antibacterial activity against Haemophilus influenzae 2 after 20 hrs by agar dilution method; type: functional; conditions: Haemophilus influenzae, 2, 20 h
# Streptococcus pneumoniae [9] = experiment: Antibacterial activity against Streptococcus pneumoniae 5 expressing constitutive ermB methylase after 20 hrs by agar dilution method; type: functional; conditions: Streptococcus pneumoniae, 5, 20 h
# Streptococcus pyogenes [10] = experiment: Antibacterial activity against Streptococcus pyogenes 3 expressing mefA efflux pump after 20 hrs by agar dilution method; type: functional; conditions: Streptococcus pyogenes, 3, 20 h
# Streptococcus pneumoniae [11] = experiment: Antibacterial activity against Streptococcus pneumoniae 7 expressing constitutive ermB methylase after 20 hrs by agar dilution method; type: functional; conditions: Streptococcus pneumoniae, 7, 20 h
# Streptococcus pneumoniae [12] = experiment: Antibacterial activity against Streptococcus pneumoniae DP1 type 1 after 20 hrs by agar dilution method; type: functional; conditions: DP1 type1, 20 h
# Streptococcus pyogenes [13] = experiment: Antibacterial activity against Streptococcus pyogenes Cook after 20 hrs by agar dilution method; type: functional
# Streptococcus pneumoniae [14] = experiment: Antibacterial activity against Streptococcus pneumoniae 10 expressing mefA efflux pump after 20 hrs by agar dilution method; type: functional; conditions: Streptococcus pneumoniae, 10, 20 h
# [15] = Metabolic stability at human liver S9 fraction assessed as compound remaining after 1 hr; type: ADME, subcellular; conditions: read-out: Stability
Structure (SMILES),MIC (Streptococcus pneumoniae [1]) [µg/mL],MIC (Staphylococcus aureus) [µg/mL],MIC (Haemophilus influenzae [2]) [µg/mL],MIC (Haemophilus influenzae [3]) [µg/mL],MIC (Streptococcus pneumoniae [4]) [µg/mL],MIC (Streptococcus pyogenes [5]) [µg/mL],MIC (Streptococcus pneumoniae [6]) [µg/mL],MIC (Streptococcus pneumoniae [7]) [µg/mL],MIC (Haemophilus influenzae [8]) [µg/mL],MIC (Streptococcus pneumoniae [9]) [µg/mL],MIC (Streptococcus pyogenes [10]) [µg/mL],MIC (Streptococcus pneumoniae [11]) [µg/mL],MIC (Streptococcus pneumoniae [12]) [µg/mL],MIC (Streptococcus pyogenes [13]) [µg/mL],MIC (Streptococcus pneumoniae [14]) [µg/mL],remaining at 1 h [15] [%]
CCNC(=O)O[C@H]1[C@H](C)O[C@@H](O[C@H]2[C@H](N(C)C)[C@@H](O)[C@H](O[C@H]3[C@@H](CC=O)C[C@@H](C)[C@@H](O)CN(C)CCC[C@H](C/C=C/c4cnc5ccccc5c4)OC(=O)C[C@@H](OC(=O)CC)[C@@H]3OC)O[C@@H]2C)C[C@@]1(C)OC(=O)CC,0.13,0.25,16,8,16,32,0.25,0.015,16,16,0.13,16,0.015,0.06,0.015,79
CCC(=O)O[C@@H]1CC(=O)O[C@@H](C/C=C/c2cnc3ccccc3c2)CCCN(C)C[C@H](O)[C@H](C)C[C@H](CC=O)[C@H](O[C@@H]2O[C@H](C)[C@@H](O[C@H]3C[C@@](C)(OC(=O)CC)[C@@H](OC(=O)NC)[C@H](C)O3)[C@H](N(C)C)[C@H]2O)[C@H]1OC,0.25,0.25,8,4,32,> 32,0.5,0.03,8,32,0.06,32,< 0.008,0.06,0.015,78
CCC(=O)O[C@@H]1CC(=O)O[C@@H](C/C=C/c2cnc3ccccc3c2)CCCN(C)C[C@H](O)[C@H](C)C[C@H](CC=O)[C@H](O[C@@H]2O[C@H](C)[C@@H](O[C@H]3C[C@@](C)(O)[C@@H](OC(=O)CC)[C@H](C)O3)[C@H](N(C)C)[C@H]2O)[C@H]1OC,8,0.5,8,2,128,> 128,8,0.03,8,128,0.5,128,0.015,0.06,0.06,28
CCNC(=O)O[C@H]1[C@H](C)O[C@@H](O[C@H]2[C@H](N(C)C)[C@@H](O)[C@H](O[C@H]3[C@@H](CC=O)C[C@@H](C)[C@@H](O)CN(C)CCC[C@H](C/C=C/c4ccc5ccccc5c4)OC(=O)C[C@@H](OC(=O)CC)[C@@H]3OC)O[C@@H]2C)C[C@@]1(C)OC(=O)CC,0.5,2,32,16,32,16,0.5,0.13,16,16,0.5,32,0.06,0.25,0.13,82
CC[C@H]1OC(=O)[C@H](C)[C@@H](O[C@H]2C[C@@](C)(OC)[C@@H](O)[C@H](C)O2)[C@H](C)[C@@H](O[C@@H]2O[C@H](C)C[C@H](N(C)C)[C@H]2O)[C@](C)(OC)C[C@@H](C)C(=O)[C@H](C)[C@@H](O)[C@]1(C)O [CLARITHROMYCIN],> 128,0.13,8,2,> 128,> 128,> 128,1,8,> 128,8,> 128,0.03,0.03,1,
CCC(=O)O[C@@H]1CC(=O)O[C@H](C)C/C=C/C=C/[C@H](OC(C)=O)[C@H](C)C[C@H](CC=O)[C@H](O[C@@H]2O[C@H](C)[C@@H](O[C@H]3C[C@@](C)(OC(C)=O)[C@@H](OC(=O)CC)[C@H](C)O3)[C@H](N(C)C)[C@H]2O)[C@H]1OC [MIOCAMYCIN],4,0.5,16,4,> 128,> 128,8,0.25,16,> 128,0.5,> 128,0.13,0.13,0.25,5.1
CCCC(=O)O[C@H]1[C@H](C)O[C@@H](O[C@H]2[C@H](N(C)C)[C@@H](O)[C@H](O[C@H]3[C@@H](CC=O)C[C@@H](C)[C@@H](O)/C=C/C=C/C[C@@H](C)OC(=O)C[C@@H](O)[C@@H]3OC)O[C@@H]2C)C[C@@]1(C)OC(=O)CC [ROKITAMYCIN],1,0.13,8,2,> 128,> 128,1,0.06,8,> 128,0.13,> 128,0.03,0.06,0.06,
CC[C@H]1OC(=O)[C@H](C)C(=O)[C@H](C)[C@@H](O[C@@H]2O[C@H](C)C[C@H](N(C)C)[C@H]2O)[C@](C)(OC)C[C@@H](C)C(=O)[C@H](C)[C@H]2N(CCCCn3cnc(-c4cccnc4)c3)C(=O)O[C@]12C [TELITHROMYCIN],0.06,0.03,1,0.5,1,16,0.06,0.06,2,0.5,0.5,1,< 0.008,< 0.008,0.06,84
